Two molecules from US20260276634A1, “METHOD FOR DETERMINING INTESTINAL PERMEABILITY” (BIOMEDAL, SL, priority 2023, published 2026) can be followed below.

The conditions of the data set: human, in vivo.

Description: Specifically, subjects (n=15) received 8 g of gluten after at least 8 hours of fasting, following a gluten-free diet for at least 36 hours in individuals without diagnosed celiac disease. The gluten consisted of gluten powder with flavorings (sweeteners and food colorings) contained in single-use heat-sealed sachets. At the same time, volunteers took 1 g of mannitol and 10 g of lactulose. Subsequently, the various urines were collected in separate containers, to be able to perform individualized measurements of the concentration in each void, as well as the total volume of the urines. The amount of gluten peptides present in urine excreted for 15 hours following gluten intake was determined using the iVYCHECK urine product and a calibrated lateral flow strip reader iVYCHECK Reader (Biomedal, Spain). […]
In this example conducted with 15 volunteers without symptoms of diagnosed digestive disease, basal urine is analyzed. […] The concentrations of GIP in the excreted urines were measured, both by ELISA and LFIA between 0-6 h after intake and between 2-15 h after intake individually. The GIP concentration of each urine of each volunteer (FIG. 4) and lactulose (FIG. 5) were measured, and subsequently, the % excreted relative to the ingested GIP and the lactulose/mannitol ratio (FIG. 6) were calculated. The correlation between lactulose: mannitol and GIP was determined. […]

For `OC[C@H]1O[C@@H](O[C@@H]2[C@@H](CO)OC(O)(CO)[C@H]2O)[C@H](O)[C@@H](O)[C@H]1O` (mixture of isomers) [lactulose], the “time over which lactulose excretion occurs” value was greater than 15 h.

In the case of gluten, the “share of detectable gluten excreted in the first 9 to 15 hours” value is given as greater than 80%.
